Measured values from US20250230226A1, “PLXDC1/PLXDC2 ACTIVATORS AND THEIR USE IN THE TREATMENT OF BLOOD VESSEL DISORDERS” (THE REGENTS OF THE UNIVERSITY OF CALIFORNIA, priority 2019, published 2025).

Test system: LL/2 lung cancer tumor endothelial cells
Experiment: Lung LL2 ex vivo model of tumor angiogenesis
Assay type: cell-based, mouse
Conditions: for 48 hrs (morphology observations): LL/2 tumor endothelial cells; for Cell death: drug treatment for two days, ratio of red area to total endothelial cell area; for cytotoxicity at 40 µM / cytotoxicity at 20 µM: Mus musculus, Endothelial cell, 48 h, read-out: Cell death
Method: An ex vivo tumor angiogenesis model was developed to test the efficacy of anti-cancer candidate agents. The following protocol describes the Ex Vivo Tumor Angiogenesis Model.
• 1. The day before the experiment, all necessary tools were sprayed with 70% ethanol and sterilized under UV light overnight, including blade, dissecting and micro-dissecting scissors and […]. 24-well dishes were placed at 4° C. to pre-chill plates and Matrigel was thawed, 24 hours before tumor dissection. • 2. 70% ethanol was sprayed on working bench. Two sterile petri dishes were prepared with 10 ml sterile PBS. The following steps 3 and 4 are necessary for mouse tumor models. For fresh human tumor, steps 3 and 4 are skipped. • 3. The tumor-bearing mice were euthanized. 70% ethanol was sprayed on the mouse and the tumor was removed using sterilized dissecting tools (avoid the fur). The tumor was rinsed in petri dish with sterile PBS to remove ethanol and fur. The tumor was transferred to a new petri dish with PBS for dissection. The dish is placed on ice. • 4. Pre-chilled sterile pipet tips were used to seed regular Matrigel in 24 well plates on ice. Matrigel (30 μl) was dropped in the middle of each well without touching the edge of the well (avoid introducing bubbles if possible). • 5. The tumor was cut in halves using the sterile blade. Healthy tumor tissue that is not necrotic and is within the tumor capsule was identified and isolated. The healthy tumor tissue was cut into small pieces. For instance, a suitable size for the tumor tissue is 0.5 mm (H)×0.5 mm (L)×0.3 mm (D) with a total volume of 0.075 mm^3. • 6. Each tumor piece was gently transferred and embedded in the Matrigel drop in the 24-well plate. The embedded piece was placed in the bottom and middle of each Matrigel drop. The plate was kept on ice all the time. • 7. After seeding the tumor pieces, plates were incubated in a 37° C. cell culture incubator without medium for 10 minutes in order for the Matrigel to solidify. • 8. Endothelial Growth Medium (0.5 ml) was added to each well and incubated at 37° C. with 5% CO2. Treatment was not added until the new endothelial cells was grown out of the tumor or were larger than 3 mm in diameter. This usually takes 4 days for the LL2 Lewis lung cancer model and 7 days for the CT26 colon cancer model. For human tumor models, the growth time is typically 2-3 weeks, depending on the tumor type. Media was changed every 4 days during prolonged culture. Typically, when the tumor tissue grows to 2 mm in diameter, it was good for drug testing. A size of about 3 mm in diameter can make visualization easier. • 9. When the assay was ready to be analyzed for cell death (e.g., 48 hours after drug addition), the dye mixture was prepared by mixing 6 μl of green dye to stain live cells (5 mg/ml Fluorescein diacetate or FDA in DMSO) with 30 μl of red dye (2.5 mg/ml Propidium iodide or PI in PBS) to stain dead cells in an Eppendorf tube. The FDA dye needs to be stored frozen in a −20° C. freezer because it has a labile ester bond. • 10. 1 μl of the dye mixture was added to each well of the 24-well dish. It is usually preferred to do one 24-well dish at a time given the amount of time needed to take pictures (the green dye is not as stable in the cells in the long term). • 11. The dish was gently rocked a few times to mix the dye with the media in the wells and incubate the dish at 37° C. for 10 min (too long incubation can make the green signal too intense). • 12. Each well was washed with 0.5 ml of sterile PBS and then 0.5 ml of phenol red free SFM was added to each well. Alternatively 0.5 ml of regular Endothelial Cell Growth Media can be added to each well if this well needs to be continuously maintained after the experiment. • 13. An inverted microscope using the 2× objective lens was used to observe morphological changes in the experimental wells. • 14. […]

| Structure (SMILES) | 48 hrs (morphology observations) (20 μm) | Cell death (20 μm) | 48 hrs (morphology observations) (40 μm) | Cell death (40 μm) | other results |
| --- | --- | --- | --- | --- | --- |
| CCc1ccc(S(=O)(=O)c2cnc3ccc(OC(F)(F)F)cc3c2NN2CCCCC2)cc1 [Compound 105] | 0 | 0% | – | – | – |
| CCCCCCCCCCCCOc1ccc(S(=O)(=O)c2cnc3ccc([S+](C)[O-])cc3c2N2CCC(N3CCC(N4CCCCC4)CC3)CC2)cc1F (stereo not shown) [Compound 363] | *** (more than 50% but less than 100% of endothelial cells vesicularize in cell shape) | 30% | – | – | – |
| CCOC(=O)c1ccc2ncc(S(=O)(=O)c3ccc(OC)cc3)c(N3CCC(N4CCC(CO)CC4)CC3)c2c1 [Compound 175] | – | – | 0 | 30% | – |
| COc1ccc(S(=O)(=O)c2cnc3cc(OC)c(OC)cc3c2N2CCCN(c3nc4ccc(Cl)cc4s3)CC2)cc1 [Compound 327] | – | – | 0 | – | cytotoxicity at 40 µM: 20% |
| CCOC(=O)c1ccc2ncc(S(=O)(=O)c3ccc(OC)cc3)c(-n3cnnn3)c2c1 [Compound 185] | – | – | – | – | 48 hrs (morphology observations) (10 μm): * (50% or less of cells vesicularize in cell shape); Cell death (10 μm): 30% |
| CCCCCCCCCCOc1ccc(S(=O)(=O)c2cnc3ccc([S+](C)[O-])cc3c2N2CCC(N3CCN(C)CC3)CC2)cc1 (stereo not shown) [Compound 264] | – | – | – | – | 48 hrs (morphology observations) (10 μm): * (50% or less of cells vesicularize in cell shape); Cell death (10 μm): 20% |
| COc1ccc(S(=O)(=O)c2cnc3cc(OC)c(OC)cc3c2N2CCC(c3ccc(CN4CCCC4)cc3)CC2)cc1 [Compound 312] | – | – | **** (100% of endothelial cells vesicularize in cell shape and look flattened in morphology (indicating disintegration of the cell body)) | 100% | – |
| COc1ccc(S(=O)(=O)c2cnc3cc(OC)c(OC)cc3c2N2CCC(=O)N(C)CC2)cc1 [Compound 328] | – | – | 0 | 30% | – |
| CCOC(=O)c1ccc2ncc(S(=O)(=O)c3ccc(CC)cc3)c(-n3ccnc3)c2c1 [Compound 134] | **** (100% of endothelial cells vesicularize in cell shape and look flattened in morphology (indicating disintegration of the cell body)) | – | – | – | – |
| CCc1ccc(S(=O)(=O)c2cnc3ccc(OC(F)(F)F)cc3c2N2CCC(N(CC)CC)CC2)cc1 [Compound 103] | 0 | 10% | – | – | – |
| CCCCOc1ccc(S(=O)(=O)c2cnc3ccc([S+](C)[O-])cc3c2N2CCC(N3CCN(CCO)CC3)CC2)cc1 (stereo not shown) [Compound 236] | – | – | 0 | 5% | – |
| COc1ccc(S(=O)(=O)c2cnc3ccc(C(=O)N(C)C)cc3c2N2CCC(N3CCCC3=O)CC2)cc1 [Compound 332] | – | – | 0 | 0% | – |
| CCOC(=O)c1ccc2ncc(S(=O)(=O)c3ccc(OC)cc3)c(N3CCCN(CCN4CCCCC4)CC3)c2c1 [Compound 179] | – | – | – | – | 48 hrs (morphology observations) (10 μm): *** (more than 50% but less than 100% of endothelial cells vesicularize in cell shape); Cell death (10 μm): 60% |
| CCCCCCCOc1ccc(S(=O)(=O)c2cnc3ccc(SC)cc3c2N2CCC(N3CCC(O)(c4ccccc4)CC3)CC2)cc1 [Compound 262] | – | – | – | – | 48 hrs (morphology observations) (10 μm): 0; Cell death (10 μm): 20% |
| CCCCCCCCCCOc1ccc(S(=O)(=O)c2cnc3ccc([S+](C)[O-])cc3c2N2CCC(N3CCCC(O)C3)CC2)cc1 (stereo not shown) [Compound 265] | – | – | – | – | 48 hrs (morphology observations) (10 μm): * (50% or less of cells vesicularize in cell shape); Cell death (10 μm): 20% |
| CCCCOc1ccc(S(=O)(=O)c2cnc3ccc(C(=O)NCCO)cc3c2N2CCCN(C)CC2)cc1 [Compound 200] | – | – | 0 | – | cytotoxicity at 40 µM: 30% |
| COc1ccc(S(=O)(=O)c2cnc3ccc(CC#N)cc3c2N2CCC(N3CCCCC3)CC2)cc1 [Compound 115] | 0 | – | – | – | cytotoxicity at 20 µM: 10% |

| Structure (SMILES) | 48 hrs (morphology observations) (20 μm) | Cell death (20 μm) | 48 hrs (morphology observations) (40 μm) | Cell death (40 μm) | other results |
| --- | --- | --- | --- | --- | --- |
| CCCCOc1ccc(S(=O)(=O)c2cnc3ccc(C(=O)OCC)cc3c2N2CCC(N3CCCCCC3)CC2)cc1 [Compound 176] | – | – | *** (more than 50% but less than 100% of endothelial cells vesicularize in cell shape) | 100% | – |
| CCOC(=O)c1ccc2ncc(S(=O)(=O)c3ccc(OC)cc3)c(N3CCC(N4CCCCCC4)CC3)c2c1 [Compound 173] | – | – | – | 50% | – |
| CCCCCCCCCCOc1ccc(S(=O)(=O)c2cnc3ccc([S+](C)[O-])cc3c2N2CCC(N3CCC(N4CCCCC4)CC3)CC2)cc1 (stereo not shown) [Compound 269] | **** (100% of endothelial cells vesicularize in cell shape and look flattened in morphology (indicating disintegration of the cell body)) | 100% | – | – | – |
| CNC(=O)c1ccc2ncc(S(=O)(=O)c3ccc(OC)cc3)c(N3CCC(N4CCCC4CO)CC3)c2c1 (stereo not shown) [Compound 336] | – | – | 0 | 0% | – |
| CCc1ccc(S(=O)(=O)c2cnc3ccc(OC(F)(F)F)cc3c2NN2CCOCC2)cc1 [Compound 126] | 0 | 10% | – | – | – |
| COc1ccc(S(=O)(=O)c2cnc3cc(OC)c(OC)cc3c2N2CCCN(CCO)CC2)cc1 [Compound 323] | – | – | 0 | 30% | – |
| CCCCCCCCCCCCCCOc1ccc(S(=O)(=O)c2cnc3ccc([S+](C)[O-])cc3c2N2CCC(N3CCC(N4CCN(C)CC4)CC3)CC2)cc1F (stereo not shown) [Compound 371] | *** (more than 50% but less than 100% of endothelial cells vesicularize in cell shape) | 30% | – | – | – |
| CCN(CC)CCN(CC)c1c(S(=O)(=O)c2ccc(OC)cc2)cnc2cc(OC)c(OC)cc12 [Compound 296] | – | – | 0 | 20% | – |
| CCCCCCCCCCCCOc1ccc(S(=O)(=O)c2cnc3ccc([S+](C)[O-])cc3c2N2CCC(N3CCC(N4CCN(CCO)CC4)CC3)CC2)cc1 (stereo not shown) [Compound 340] | *** (more than 50% but less than 100% of endothelial cells vesicularize in cell shape) | 60% | – | – | – |
| CCCCCCCOc1ccc(S(=O)(=O)c2cnc3ccc([S+](C)[O-])cc3c2N2CCN(CC3CCN(Cc4ccccc4)CC3)CC2)cc1 (stereo not shown) [Compound 279] | **** (100% of endothelial cells vesicularize in cell shape and look flattened in morphology (indicating disintegration of the cell body)) | 100% | – | – | – |
| CCCCOc1ccc(S(=O)(=O)c2cnc3ccc(C(=O)NC4C(O)O[C@H](CO)[C@@H](O)[C@@H]4O)cc3c2N2CCCN(C)CC2)cc1 (stereo partly shown) [Compound 193] | – | – | 0 | – | cytotoxicity at 40 µM: 30% |
| CCCCOc1ccc(S(=O)(=O)c2cnc3ccc(C(=O)OCC)cc3c2N2CCC(N3CC[S+]([O-])CC3)CC2)cc1 [Compound 244] | – | – | 0 | – | cytotoxicity at 40 µM: 20% |
| CCCCCCCCCCCCCCOc1ccc(S(=O)(=O)c2cnc3ccc([S+](C)[O-])cc3c2N2CCC(N3CCN(CCO)CC3)CC2)cc1F (stereo not shown) [Compound 365] | *** (more than 50% but less than 100% of endothelial cells vesicularize in cell shape) | 20% | – | – | – |
| CCc1ccc(S(=O)(=O)c2cnc3ccc(OC(F)(F)F)cc3c2-n2cnnn2)cc1 [Compound 125] | * (50% or less of cells vesicularize in cell shape) | – | – | – | cytotoxicity at 20 µM: 10% |
| CCCCCCCCCCCCCCOc1ccc(S(=O)(=O)c2cnc3ccc([S+](C)[O-])cc3c2N2CCC(N3CCC(N4CCN(CCO)CC4)CC3)CC2)cc1 (stereo not shown) [Compound 345] | *** (more than 50% but less than 100% of endothelial cells vesicularize in cell shape) | 50% | – | – | – |
| CCCCOc1ccc(S(=O)(=O)c2cnc3ccc([S+](C)[O-])cc3c2N2CCC(N3CCC(CO)CC3)CC2)cc1 (stereo not shown) [Compound 240] | – | – | 0 | 30% | – |
